Measurements reported in ChEMBL document CHEMBL1157539, “Thousands of chemical starting points for antimalarial lead identification” (Nature, 2010).
Where “and” joins values, the source holds several entries; their conditions need not be identical. Equal values may be shown once.

Test system: Plasmodium falciparum
Assay: GSK_TCMDC: Inhibition of Plasmodium falciparum 3D7 in whole erythrocytes, using parasite LDH activity as an index of growth.
Type: functional, organism-based

Row | SMILES | XC50 (Plasmodium falciparum, 3D7) | XC50
1 | Cc1cccc2nc(-c3ccc(-c4ccc(CN5CCN(CCO)CC5)cc4)cc3)[nH]c12 | 599 nM | –
2 | CN(C)CCNC(=O)c1ccc(-c2cnc3ccc(NCc4ccc(Cl)c(Cl)c4)nn23)cc1 | 913 nM | –
3 | C#CCN1CCC2=C(C1)c1c(O)cc(C(C)C(C)CCc3ccc(F)cc3)cc1OC2(C)C (configuration not stated) | 175 nM | –
4 | CCN(CC)/C(=N/C(=N)Nc1ccc(Br)cc1)NCCCCCCN/C(=N\C(=N)Nc1ccc(Br)cc1)N(CC)CC | 384 nM | –
5 | COC(=O)c1ccc(CC(C)NCC(O)c2cc(Cl)c(N)c(Cl)c2)cc1 (configuration not stated) | 877 nM | –
6 | Clc1ccc(CNc2nc(NCCc3c[nH]cn3)nc(N3CCCC4CCCCC43)n2)cc1 (configuration not stated) | 591 nM | –
7 | COc1ccc(NC(=O)c2ccc(Br)c(C)c2)cc1N1CCN(Cc2ccccc2)CC1 | 918 nM | –
8 | COc1ccc(-c2cc3ncn(CC(=O)N4CCN(c5cccc(OC)c5)CC4)c(=O)c3s2)cc1 | 1060 nM | –
9 | CNCCNCc1cccc(-c2cccc(-c3nc4cc(F)ccc4[nH]3)c2)c1 | 670 nM | –
10 | CC(CN1CCN(C)CC1)C(=O)Nc1ccc(-c2ccc(-c3nc4ccccc4[nH]3)cc2)cc1 (configuration not stated) | 954 nM | –
11 | OC1CCCN(Cc2ccc(-c3ccc(-c4nc5cc(F)ccc5[nH]4)cc3)cc2)C1 (configuration not stated) | 854 nM | –
12 | O=C(/C=C/c1cc([N+](=O)[O-])ccc1Cl)N1CCC(CCN2CCC(c3c[nH]c4ccccc34)CC2)CC1 | 742 nM | –
13 | CCNC(=O)c1ccc2c(c1)c(C)c(C)n2Cc1ccc(F)cc1 | 767 nM | –
14 | CCOc1ccc2[nH]c(C)cc(=NN=Cc3ccc(Cl)cc3)c2c1 | 763 nM | –
15 | O=C(CN1CCN(C(=O)c2ccco2)CC1)Nc1ccccc1Br | 558 nM | –
16 | Cc1cc(C(=O)Nc2ccc3c(c2)CCN3C2CCN(Cc3cc(F)cc(F)c3F)C2)no1 (configuration not stated) | 282 nM | –
17 | Cn1cncc1C(=O)Nc1cccc(-c2cccc(-c3nc4cc(C(F)(F)F)ccc4[nH]3)c2)c1 | 205 nM | –
18 | O=C(/C=C/c1ccc(Cl)c(Cl)c1)NC1CCN(Cc2ccc(O)cc2)CC1 | 691 nM | –
19 | CCc1c(C(=O)NC2CCC(N3CCC(c4ccccc4OC)CC3)CC2)[nH]c2ccc(Br)cc12 (configuration not stated) | 1120 nM | –
20 | O=C(Nc1ccc(OC2CCN(Cc3ccsc3)CC2)c(Cl)c1)c1ccco1 | 784 nM | –
21 | CCNC(=O)Nc1ccc(-c2cccc(-c3nc4cccc(C)c4[nH]3)c2)cc1 | 756 nM | –
22 | O=C(/C=C/c1ccc(Cl)c(Cl)c1)NCCCCCN1CCC(CCNC(=O)C2(c3ccc(Cl)cc3)CC2)CC1 | 925 nM | –
23 | CCN(CCCN1CCCCC1)c1cc(C)nc(Nc2ccc(Cl)cc2)n1 | 385 nM | –
24 | O=C(N[C@@H](Cc1ccccc1)C(=O)NC1CCCCCC1)c1ccc(O)c(-c2ccc(Cl)c(Cl)c2)c1 | 329 nM | –
25 | COc1ccc(Cl)cc1N1CCN(CCCNC(=O)c2ccc(-c3nc4ccc(C(F)(F)F)cc4[nH]3)c(C)c2)CC1 | 762 nM | –

Row | SMILES | XC50 (Plasmodium falciparum, 3D7) | XC50
26 | CN(Cc1cccc(O)c1)C1CCN(c2cc(NC(=O)c3ccc(F)cc3)ccn2)CC1 | 956 nM | –
27 | O=C(Nc1ccc(Cl)cc1)N[C@H]1CCN(CCCCCNC(=O)C2CC2c2ccc(Cl)c(Cl)c2)C1 (some centres not stated) | 874 nM | –
28 | CCS(=O)(=O)N1CCN(c2nc(-c3ccccc3)nc(COC)c2Cc2ccccc2F)CC1 | 1450 nM | –
29 | CCOc1cc2c(cc1S(=O)(=O)c1ccc(COc3ccc(C(F)(F)F)cc3)cc1)CCN(C)CC2 | 1020 nM | –
30 | COc1cc(NC(=O)c2sc(-c3ccc(Cl)cc3)cc2NC(=O)N2CCCC2)ccc1OCCN1CCCC1 | 569 nM | –
31 | CCc1sc(N2CCN(C)CC2)nc1C(=O)NCCc1ccc(Cl)c(Cl)c1 | 1180 nM | –
32 | COC(=O)/C=C/c1ccc(CC(C)NCC(O)c2cccc(C(F)(F)F)c2)cc1 (configuration not stated) | 731 nM | –
33 | Cc1ccc(NC(=O)c2ccc3ncccc3c2)cc1OC1CCN(Cc2ccsc2)C1 (configuration not stated) | 802 nM | –
34 | COc1ccc(Nc2ncc3c(-c4cccc(NC(=O)c5ccccc5)c4)c[nH]c3n2)cc1OC | 461 nM | –
35 | COc1cc(F)c2ncc(Cl)c(CCN3CCC(NCc4ccc5c(n4)NC(=O)CS5)CC3)c2c1 | 482 nM | –
36 | CC(Oc1ccc(C(=O)c2ccc(F)cc2)cc1)C(=O)N1CCc2ccccc21 (configuration not stated) | 413 nM | –
37 | CCN(CC)Cc1cccc(-c2cc3c(-c4ccc(C(=O)O)c(C(C)C)c4)ccnc3[nH]2)c1OC | 323 nM | –
38 | N#CCOc1c(C2CCN(CCCCNC(=O)c3ccc(-c4ccc(C(F)(F)F)cc4)cc3)CC2)ccc2c1CCCC2 | 762 nM | –
39 | COc1ccc(CC(C)NCC(O)c2cccc(Cl)c2F)cc1 (configuration not stated) | 1080 nM | –
40 | N=C(N)c1ccc(NC(=O)Cc2nc3cc(C(=N)N)ccc3[nH]2)cc1 | 1380 nM | –
41 | Cc1nc(Nc2ccncc2)cc(-c2ccncc2)n1 | 725 nM | –
42 | O=C(Nc1ccc(Cl)cc1)OCCn1nnnc1C(c1ccc(Cl)cc1)N1CCOCC1 (configuration not stated) | 1180 nM | –
43 | CCC1N=C(N)N=C(N)N1OCc1cccc2ccccc12 (configuration not stated) | 3.2 nM | –
44 | Cc1ccc(Nc2nc(NN=Cc3ccc(-c4ccc([N+](=O)[O-])cc4)o3)nc(N3CCOCC3)n2)cc1Cl | 652 nM | –
45 | O=C(C1CC1c1ccccc1)N(Cc1ccc(-c2ccc(CNCCc3ccccc3)cc2)cc1)C1CCNCC1 (configuration not stated) | 1110 nM | –
46 | CN(C)CC(=O)N(Cc1ccc(Cl)c(Cl)c1)Cc1csc(-c2ccc(CNCc3ccccc3)cc2)n1 | 1050 nM | –
47 | CCOc1ccc(S(=O)(=O)N(C)c2ccc(OCC(=O)Nc3nccs3)cc2)cc1 | 961 nM | –
48 | CC(C)(C)CC(C)(C)c1ccc(O)c(C(=O)Nc2ccc([N+](=O)[O-])cc2)c1 | 774 nM | –
49 | CC1CCc2c(C(=O)N3CCc4ccccc4C3)csc2C1 (configuration not stated) | 782 nM | –
50 | Cc1c[nH]c2cc(/C=C/C(=O)NC3CCC(CCN4CCc5ccc(C#N)cc5CC4)CC3)ccc12 (configuration not stated) | 801 nM | –

Row | SMILES | XC50 (Plasmodium falciparum, 3D7) | XC50
51 | c1cc(CNCCN2CCNCC2)cc(-c2cccc(-c3nc4ccccc4[nH]3)c2)c1 | 959 nM | –
52 | O=C(NCC1CCC(CNCCCc2ccccc2)CC1)c1cc(Cl)cc(Cl)c1 (configuration not stated) | 846 nM | –
53 | Cc1cc(=O)c(C2CCC(c3ccc(Cl)cc3)CC2)c(C)[nH]1 (configuration not stated) | 743 nM | –
54 | Oc1cc(NC[C@H]2CCC[C@@H]2NCc2cc(Br)cc(Br)c2)nc2ccccc12 | 678 nM | –
55 | COc1ccc2nc(C)cc(Nc3ccc(Oc4ccc5ccccc5c4Cl)c(Cl)c3)c2c1 | 501 nM | –
56 | CCCc1cn2c3c(cc(C(=O)N[C@@H](Cc4ccccc4)[C@H](O)CNC4CCOCC4)cc13)N(C)S(=O)(=O)CC2 | 47.7 nM | –
57 | COc1ccc(CNC2CCN(C)CC2)cc1-c1ccc(S(=O)(=O)NCc2ccccc2)s1 | 230 nM | –
58 | Cc1nnsc1C(=O)Nc1cccc(-c2cccc(-c3nc4cccc(C)c4[nH]3)c2)c1 | 267 nM | –
59 | Cc1ccc(OC2CCN(c3ccc(C(=O)NC4CC4)cn3)CC2)cc1 | 1300 nM | –
60 | CCCCN(Cc1cccc(C(F)(F)F)c1Cl)c1ccc(C(O)(C(F)(F)F)C(F)(F)F)cc1 | 960 nM | –
61 | O=S(=O)(Nc1ccc2nccc(N3CCNCC3)c2c1)c1ccc2oc3ccccc3c2c1 | 695 nM | –
62 | CN(C)c1ccc(C=Cc2ccc3ccccc3n2)c(Cl)c1 | 436 nM | –
63 | Cc1cccc2nc(-c3ccc(-c4cccc(NC(=O)Nc5cccc(C#N)c5)c4)cc3)[nH]c12 | 544 nM | –
64 | Cc1nc(-c2cccc(Nc3nccc(NCC(O)c4ccc(C(F)(F)F)cc4)n3)c2)cs1 (configuration not stated) | 511 nM | –
65 | CCNc1nc(OCC(F)(F)F)nc(N(c2ccccc2)c2ccccc2)n1 | 472 nM | –
66 | COc1ccc(CCc2ccc(-c3c(C)[nH]c(C)c(Cl)c3=O)cc2)cc1 | 15.2 nM | –
67 | CN1CCC(c2c[nH]c3ccc(NC(=O)Nc4ccc(-c5ccncc5)c(Cl)c4Cl)cc23)CC1 | 696 nM | –
68 | CN(C)CCOc1ccc(-n2c(-c3nonc3N)nc3cncc(-c4ccc(F)cc4)c32)cc1 | 866 nM | –
69 | Cc1cc(-c2cc(-c3ccc(OCCN(C)C)cc3)[nH]c2-c2ccc3c(c2)CCC3=NO)ccn1 | 867 nM | –
70 | C=CCc1ccc(C[C@H](NC(=O)OC(C)(C)C)C(=O)OC)cc1 | 814 nM | –
71 | CN(CCN)Cc1cccc(-c2cccc(-c3nc4cc(C(F)(F)F)ccc4[nH]3)c2)c1 | 509 nM | –
72 | COc1ccc(N2CCN(CCCCNC(=O)c3ccc(NC(=O)c4ccc(Cl)c(Cl)c4)cc3)CC2)c(OC)c1 | 212 nM | –
73 | N=C(N)NN=Cc1ccc2ccc3ccccc3c2c1 | 376 nM | –
74 | CC(CN1CCN(C)CC1)C(=O)Nc1ccc(-c2csc(-c3nc4ccccc4[nH]3)c2)cc1 (configuration not stated) | 837 nM | –
75 | CCN(CC)CCN(Cc1ccc(-c2ccc(C(F)(F)F)cc2)cc1)C(=O)Cn1c(CCc2cccc(F)c2F)nc(=O)c2ccc(C)cc21 | 668 nM | –

Row | SMILES | XC50 (Plasmodium falciparum, 3D7) | XC50
76 | O=C(O[C@@H]1CN[C@H](C#Cc2cc3ncnc(Nc4ccc5c(cnn5Cc5cccc(F)c5)c4)c3s2)C1)N1CCCC1 | 757 nM | –
77 | Cc1ccc([S+]([O-])Cc2ccc(Cl)cc2)cc1 (configuration not stated) | 196 nM | –
78 | Cc1cc(NC(=O)NCCN2CCC(NC(=O)c3ccc(C(F)(F)F)cc3)CC2)c2ccccc2n1 | 413 nM | –
79 | CN(Cc1cc(C(F)(F)F)cc(C(F)(F)F)c1)C(=O)C(Cc1ccc(F)cc1)C1CCCNC1 (configuration not stated) | 1540 nM | –
80 | COc1ccc(-c2cccc(NC(=O)c3cccc(C#N)c3)c2)cc1CN(C)CCO | 823 nM | –
81 | CCN(CC)CCN(Cc1ccc(-c2ccc(C(F)(F)F)cc2)cc1)C(=O)Cn1nc(-c2ccc(C(F)(F)F)cc2)ccc1=O | 797 nM | –
82 | Cc1cccnc1CNc1nccc2c(C)c(C)[nH]c12 | 849 nM | –
83 | CCOC(C(=O)OCC1CCCN1C)(c1ccccc1)c1ccccc1 (configuration not stated) | 863 nM | –
84 | CCOc1cc(C=Cc2nc(O)c3ccccc3n2)cc(Cl)c1O | 1180 nM | –
85 | Cc1cc(=O)c(-c2ccc(Oc3cccc(C(F)(F)F)c3)cc2)c(C)[nH]1 | – | 629 nM and 209 nM
86 | Oc1c(C(Nc2ccccn2)c2ccc(Cl)cc2Cl)ccc2cccnc12 (configuration not stated) | 892 nM | –
87 | COc1cc(Cc2cnc(N)nc2N)cc(OCCn2ccccc2=O)c1OC | 773 nM | –
88 | CS(=O)(=O)NCCCNCc1ccc(-c2ccc(-c3nc4cc(C(F)(F)F)ccc4[nH]3)cc2)cc1 | 457 nM | –
89 | CCCCC1(NC(=O)[C@H](CC(C)C)Nc2ccc(C#N)c3ccccc23)CCCCC1 | 799 nM | –
90 | CN(C)c1ccc(CN2CCC(NC(=O)c3ccc(-c4ccccc4Cl)s3)CC2)cc1 | 899 nM | –
91 | O=C(/C=C/c1ccc(Cl)cc1)NCCCCCN1CCCC(C(=O)Nc2cccc(Cl)c2)C1 (configuration not stated) | 208 nM | –
92 | N#Cc1ccc(-c2nc3c(N4CCCC4)cccc3n2CCNCc2ccccc2)cc1 | 593 nM | –
93 | c1cc(CN2CCC(CCN3CCCCC3)CC2)cc(-c2cccc(-c3nc4ccccc4[nH]3)c2)c1 | 140 nM | –
94 | COC(=O)C(Cc1ccccc1)NC(=O)NC1CCN(c2ccnc(Nc3ccc(F)cc3)n2)C1 (configuration not stated) | 1090 nM | –
95 | CCCNCc1ccc(-c2ccc(CN(CCOC)C(=O)CC3CCCC3=O)cc2)nc1 (configuration not stated) | 1240 nM | –
96 | CC1CN(CC(O)Cn2c3ccc(Br)cc3c3cc(Br)ccc32)CC(C)O1 (configuration not stated) | 776 nM | –
97 | CCCC(=O)Nc1ccc(OCCCCN(CC(C)(C)C)c2ccc(C#N)c(C(F)(F)F)c2)cc1 | 1350 nM | –
